This note sets out measurements from patent US7626076B2, “Transgenic mouse whose genome comprises a homozygous disruption of its α1G gene, a method of preparing the same and use thereof” (Orient Bio., Inc., priority 2002, dated 2009).

What all share (format): in vivo, mouse
For experiment [1], the system named is wild-type and α1G −/− mice. Description: SWD generation in epidural EEG after systemic injection of absence seizure-inducing agents. The note with it: for SWD generation in epidural EEG: α1G −/− mice. From the text:
To examine the role of α1G in the generation of SWDs in vivo, the present inventors systematically [“systemic” and “systematic” are different] injected into α1G −/− mice and wild-type mice either γ-butyrolactone, a prodrug of γ-hydroxybutyric acid, or (RS)-baclofen. Absence seizures induced by these drugs are characterized by bilaterally synchronous SWDs and have been associated with behavioral arrest, facial myoclonus, and vibrissal twitching.

Experiment [2] deals with wild-type and α1G −/− mice. Nature of the experiment: Thalamic field activity (depth electrodes) and epidural EEG after (RS)-baclofen in freely moving animals. To be noted: 30 mg/kg i.p. The method, then:
To confirm the result of Example 6, the present inventors examined the field activity of thalamic nuclei using depth electrodes in freely moving animals. […] To examine the thalamic SWDs, the present inventors injected (RS)-baclofen i.p. at 30 mg/kg instead of the dose, i.e., 20 mg/kg, used previously (FIG. 4B). […] The administration of baclofen synchronized all thalamic activities into 2-3 Hz SWDs in wild-type nice (FIG. 5B, left). In the α1G −/− thalamus, however, baclofen reduced the amplitudes of peaks in a wide range of frequency, as if it caused general desynchronization (FIG. 5B, right).

In experiment [3] the test system is wild-type and α1G −/− mice. Nature of the experiment: Convulsive seizures induced by 4-AP (EEG and behavioral seizure score). An excerpt:
The present inventors tested whether the seizure resistance of α1G −/− mice was specific to absence seizures. […] The EEG pattern of these ictal discharges was quite different from that observed in the spike-and-wave seizures induced by baclofen or bicuculline.
The below scores grade the seizures according to behavioral seizures as monitored by video.
1: mild tremors of the head
2: whole body tremors with loss of postural control
3: erratic running, erratic jumping, or tonic-clonic movement of the limbs
4: tonic extension of the whole body or death

Experiment [4] deals with wild-type and α1G −/− mice. Description: EEG recording of cortex and thalamus after injection of BMB. To be noted: 10 mg/kg into the peritoneal cavity. The procedure: Systematic administration or focal injection of bicuculline into the cortex has been known to evoke SWDs mainly originating from the territory of the cortex (Steriade and Contreras, Journal of Neurophysiology, 1998, 80, 1439-55). To determine the role of α1G in the cortex-dependent mechanism of SWDs, the present inventors examined the EEG pattern after injection of BMB into the peritoneal cavity of mice at 10 mg/kg.
However, because of the complexity of the bicuculline-induced seizures, the present inventors could not conclude whether there is any quantitative difference in the amplitude of the SWDs or in the time lag of SWD occurrences for the two types of mice (i.e., wild-type and α1G −/−). […] Thus, it seems that the BMB-induced SWDs observed here are also associated with other types of generalized seizures.

For the molecule `NCC(CC(=O)O)c1ccc(Cl)cc1` (racemic) [(RS)-baclofen], the “frequency of SWDs in epidural EEG” value in experiment [1] (wild-type mice, 20 mg/kg) is on record as 3-4 Hz; in experiment [2] (duration of SWDs significantly increased versus 20 mg/kg) it was 2-3 Hz. The “SWD generation in epidural EEG” value in experiment [1] (20 mg/kg) was “marked resistance to the generation of SWDs”. Further, in experiment [2] (wild-type thalamus), the “frequency of SWDs in thalamus (field recording)” value is 2-3 Hz. For the same molecule, the “SWD generation in thalamus (field recording)” value in experiment [2] (α1G −/− thalamus) is “no such synchronized activities were observed”.
For the molecule `Nc1ccncc1` [4-AP, 4-aminopyridine], the “mice that developed seizures” value in experiment [3] (2 mg/kg into the peritoneal cavity, C57BL/6J and 129/sv) came to 25%. For the same molecule, the “mice that developed tonic-clonic seizures” value in experiment [3] (10 mg/kg into the peritoneal cavity, C57BL/6J and 129/sv) is listed as “All of the mice”. Moreover, the “time to vigorous ictal discharges after injection” value in experiment [3] (10 mg/kg, both wild-type and α1G −/− mice) is 30 to 40 min. For the same molecule, in experiment [3] (seizure score 0-4, 2 mg/kg and 10 mg/kg), the “severity of induced seizures graded by behavioral symptoms, wild-type versus α1G −/− mice” value is listed as “no quantitative difference”.
With `C[N+]1(C)CCc2cc3c(cc2[C@H]1[C@@H]1OC(=O)c2c1ccc1c2OCO1)OCO3.[Br-]` [BMB, bicucullinemethobromide], in experiment [4], the “time to initiation of seizure spikes in the cortex” value is “within five minutes”. In addition, the “SWD generation in EEG” value in experiment [4] (α1G −/− mice) is “exhibited SWD-like activities”.
For the molecule `O=C1CCCO1` [γ-butyrolactone], the “frequency of paroxysmal SWDs in epidural EEG” value in experiment [1] (wild-type mice, 70 mg/kg) was 3-5 Hz. In addition, the “SWD generation in epidural EEG” value in experiment [1] (70 mg/kg) is reported as “did not display typical SWD patterns”.
